This passage reports IC50 results from patent publication US20220169628A1 (University of Florida Research Foundation, Incorporated, priority 2019, published 2022).

For assay [1], the system named is MOLT-4 cells. As to the kind of experiment: Cell viability assay, MTS, 72 h, MOLT-4. It is filed as cell-based. The conditions noted are these: Homo sapiens; MOLT-4 cells, 72 h, MTS. The method, then: (§1) Cancer cells from different tissue origins including acute lymphoblastic leukemia (MOLT4 and RS4; 11), small cell lung cancer (NCI-H146 or simply H146), and multiple myeloma (EJM and H929) were incubated with increasing concentrations of Examples 1-21 or ABT-263 for 72 h. Cell viability was measured by tetrazolium-based MTS assay. 5×10^4 to 1×10^5 suspension cells or 3×10^3 to 5×10^3 adherent cells were seeded and treated in 96-well plates for 72 h. The EC50 values of individual agents were calculated with GraphPad Prism.

The subject of assay [2] is RS4 cells. The experiment in a line: Cell viability assay, MTS, 72 h, RS4;11. Format: cell-based. The settings on record: Homo sapiens. The method, then: as §1

Regarding `Cc1ncsc1-c1ccc([C@H](C)NC(=O)[C@@H]2C[C@@H](O)CN2C(=O)[C@@H](NC(=O)COCCOCCOCCOCCOC(=O)N2CCC(c3ccc(Cl)cc3)=C(CN3CCN(c4ccc(C(=O)NS(=O)(=O)c5ccc(N[C@H](CCN6CCOCC6)CSc6ccccc6)c(S(=O)(=O)C(F)(F)F)c5)cc4)CC3)C2)C(C)(C)C)cc1` [Compound 36, (S)-16-((2S,4R)-4-hydroxy-2-(((S)-1-(4-(4-methylthiazol-5-yl)phenyl)ethyl)carbamoyl)pyrrolidine-1-carbonyl)-17,17-dimethyl-14-oxo-3,6,9,12-tetraoxa-15-azaoctadecyl 4-(4-chlorophenyl)-5-((4-(4-(((4-(((R)-4-morpholino-1-(phenylthio)butan-2-yl)amino)-3-((trifluoromethyl)sulfonyl)phenyl)sulfonyl)carbamoyl)phenyl)piperazin-1-yl)methyl)-3,6-dihydropyridine-1(2H)-carboxylate], the IC50 (in general, the concentration that inhibits the measured activity by half) in assay [1] was 342 nM; in assay [2], 1750 nM.

`Cc1ncsc1-c1ccc([C@H](C)NC(=O)[C@@H]2C[C@@H](O)CN2C(=O)[C@@H](NC(=O)CCCCC(=O)NCC2(C)CCC(c3ccc(Cl)cc3)=C(CN3CCN(c4ccc(C(=O)NS(=O)(=O)c5ccc(N[C@H](CCN6CCOCC6)CSc6ccccc6)c(S(=O)(=O)C(F)(F)F)c5)cc4)CC3)C2)C(C)(C)C)cc1` (stereo partly drawn) [Compound 49, N′-((4′-chloro-4-methyl-6-((4-(4-(((4-(((R)-4-morpholino-1-(phenylthio)butan-2-yl)amino)-3-((trifluoromethyl)sulfonyl)phenyl)sulfonyl)carbamoyl)phenyl)piperazin-1-yl)methyl)-2,3,4,5-tetrahydro-[1,1′-biphenyl]-4-yl)methyl)-N^6—((S)-1-((2S,4R)-4-hydroxy-2-(((S)-1-(4-(4-methylthiazol-5-yl)phenyl)ethyl)carbamoyl)pyrrolidin-1-yl)-3,3-dimethyl-1-oxobutan-2-yl)adipamide]: the IC50 turned out to be 340 nM in assay [1] and 303 nM in assay [2].

For the compound `Cc1ncsc1-c1ccc([C@H](C)NC(=O)[C@@H]2C[C@@H](O)CN2C(=O)[C@@H](NC(=O)CCCCCC(=O)NCC2(C)CCC(c3ccc(Cl)cc3)=C(CN3CCN(c4ccc(C(=O)NS(=O)(=O)c5ccc(N[C@H](CCN6CCOCC6)CSc6ccccc6)c(S(=O)(=O)C(F)(F)F)c5)cc4)CC3)C2)C(C)(C)C)cc1` (stereo partly drawn) [Compound 50, N^1-((4′-chloro-4-methyl-6-((4-(4-(((4-(((R)-4-morpholino-1-(phenylthio)butan-2-yl)amino)-3-((trifluoromethyl)sulfonyl)phenyl)sulfonyl)carbamoyl)phenyl)piperazin-1-yl)methyl)-2,3,4,5-tetrahydro-[1,1′-biphenyl]-4-yl)methyl)-N^7—((S)-1-((2S,4R)-4-hydroxy-2-(((S)-1-(4-(4-methylthiazol-5-yl)phenyl)ethyl)carbamoyl)pyrrolidin-1-yl)-3,3-dimethyl-1-oxobutan-2-yl)heptanediamide], the IC50 in assay [1] was 187 nM; in assay [2], 99 nM.

With `Cc1ncsc1-c1ccc([C@H](C)NC(=O)[C@@H]2C[C@@H](O)CN2C(=O)[C@@H](NC(=O)CCCCCCC(=O)NCC2(C)CCC(c3ccc(Cl)cc3)=C(CN3CCN(c4ccc(C(=O)NS(=O)(=O)c5ccc(N[C@H](CCN6CCOCC6)CSc6ccccc6)c(S(=O)(=O)C(F)(F)F)c5)cc4)CC3)C2)C(C)(C)C)cc1` (stereo partly drawn) [Compound 51, N^1-((4′-chloro-4-methyl-6-((4-(4-(((4-(((R)-4-morpholino-1-(phenylthio)butan-2-yl)amino)-3-((trifluoromethyl)sulfonyl)phenyl)sulfonyl)carbamoyl)phenyl)piperazin-1-yl)methyl)-2,3,4,5-tetrahydro-[1,1′-biphenyl]-4-yl)methyl)-N^8—((S)-1-((2S,4R)-4-hydroxy-2-(((S)-1-(4-(4-methylthiazol-5-yl)phenyl)ethyl)carbamoyl)pyrrolidin-1-yl)-3,3-dimethyl-1-oxobutan-2-yl)octanediamide], the half-inhibitory concentration (IC50) turned out to be 142 nM in assay [1] and 47 nM in assay [2].

For `Cc1ncsc1-c1ccc([C@H](C)NC(=O)[C@@H]2C[C@@H](O)CN2C(=O)[C@@H](NC(=O)CCCCCCCC(=O)NCC2(C)CCC(c3ccc(Cl)cc3)=C(CN3CCN(c4ccc(C(=O)NS(=O)(=O)c5ccc(N[C@H](CCN6CCOCC6)CSc6ccccc6)c(S(=O)(=O)C(F)(F)F)c5)cc4)CC3)C2)C(C)(C)C)cc1` (stereo partly drawn) [Compound 52, N^1-((4′-chloro-4-methyl-6-((4-(4-(((4-(((R)-4-morpholino-1-(phenylthio)butan-2-yl)amino)-3-((trifluoromethyl)sulfonyl)phenyl)sulfonyl)carbamoyl)phenyl)piperazin-1-yl)methyl)-2,3,4,5-tetrahydro-[1,1′-biphenyl]-4-yl)methyl)-N^9—((S)-1-((2S,4R)-4-hydroxy-2-(((S)-1-(4-(4-methylthiazol-5-yl)phenyl)ethyl)carbamoyl)pyrrolidin-1-yl)-3,3-dimethyl-1-oxobutan-2-yl)nonanediamide], the IC50 is 124 nM in assay [1] and 43 nM in assay [2].

Turning to `Cc1ncsc1-c1ccc([C@H](C)NC(=O)[C@@H]2C[C@@H](O)CN2C(=O)[C@@H](NC(=O)CCCCCCCCCC(=O)NCC2(C)CCC(c3ccc(Cl)cc3)=C(CN3CCN(c4ccc(C(=O)NS(=O)(=O)c5ccc(N[C@H](CCN6CCOCC6)CSc6ccccc6)c(S(=O)(=O)C(F)(F)F)c5)cc4)CC3)C2)C(C)(C)C)cc1` (stereo partly drawn) [Compound 54, N^1-((4′-chloro-4-methyl-6-((4-(4-(((4-(((R)-4-morpholino-1-(phenylthio)butan-2-yl)amino)-3-((trifluoromethyl)sulfonyl)phenyl)sulfonyl)carbamoyl)phenyl)piperazin-1-yl)methyl)-2,3,4,5-tetrahydro-[1,1′-biphenyl]-4-yl)methyl)-N^11—((S)-1-((2S,4R)-4-hydroxy-2-(((S)-1-(4-(4-methylthiazol-5-yl)phenyl)ethyl)carbamoyl)pyrrolidin-1-yl)-3,3-dimethyl-1-oxobutan-2-yl)undecanediamide], the IC50 turned out to be 74 nM in assay [1] and 19.4 nM in assay [2].

In the case of `Cc1ncsc1-c1ccc([C@H](C)NC(=O)[C@@H]2C[C@@H](O)CN2C(=O)[C@@H](NC(=O)CCCCCCCCCCC(=O)NCC2(C)CCC(c3ccc(Cl)cc3)=C(CN3CCN(c4ccc(C(=O)NS(=O)(=O)c5ccc(N[C@H](CCN6CCOCC6)CSc6ccccc6)c(S(=O)(=O)C(F)(F)F)c5)cc4)CC3)C2)C(C)(C)C)cc1` (stereo partly drawn) [Compound 55, N^1-((4′-chloro-4-methyl-6-((4-(4-(((4-(((R)-4-morpholino-1-(phenylthio)butan-2-yl)amino)-3-((trifluoromethyl)sulfonyl)phenyl)sulfonyl)carbamoyl)phenyl)piperazin-1-yl)methyl)-2,3,4,5-tetrahydro-[1,1′-biphenyl]-4-yl)methyl)-N^2—((S)-1-((2S,4R)-4-hydroxy-2-(((S)-1-(4-(4-methylthiazol-5-yl)phenyl)ethyl)carbamoyl)pyrrolidin-1-yl)-3,3-dimethyl-1-oxobutan-2-yl)dodecanediamide], the IC50 in assay [1] stood at 111 nM; in assay [2], 96 nM.

With `Cc1ncsc1-c1ccc([C@H](C)NC(=O)[C@@H]2C[C@@H](O)CN2C(=O)[C@@H](NC(=O)CCCCCCCCCCCC(=O)NCC2(C)CCC(c3ccc(Cl)cc3)=C(CN3CCN(c4ccc(C(=O)NS(=O)(=O)c5ccc(N[C@H](CCN6CCOCC6)CSc6ccccc6)c(S(=O)(=O)C(F)(F)F)c5)cc4)CC3)C2)C(C)(C)C)cc1` (stereo partly drawn) [Compound 56, N^1-((4′-chloro-4-methyl-6-((4-(4-(((4-(((R)-4-morpholino-1-(phenylthio)butan-2-yl)amino)-3-((trifluoromethyl)sulfonyl)phenyl)sulfonyl)carbamoyl)phenyl)piperazin-1-yl)methyl)-2,3,4,5-tetrahydro-[1,1′-biphenyl]-4-yl)methyl)-N^13—((S)-1-((2S,4R)-4-hydroxy-2-(((S)-1-(4-(4-methylthiazol-5-yl)phenyl)ethyl)carbamoyl)pyrrolidin-1-yl)-3,3-dimethyl-1-oxobutan-2-yl)tridecanediamide], the IC50 in assay [1] came out at 333 nM; in assay [2], 410 nM.

As to `Cc1ncsc1-c1ccc([C@H](C)NC(=O)[C@@H]2C[C@@H](O)CN2C(=O)[C@@H](NC(=O)COCCOCCOCCOCC(=O)NCC2(C)CCC(c3ccc(Cl)cc3)=C(CN3CCN(c4ccc(C(=O)NS(=O)(=O)c5ccc(N[C@H](CCN6CCOCC6)CSc6ccccc6)c(S(=O)(=O)C(F)(F)F)c5)cc4)CC3)C2)C(C)(C)C)cc1` (stereo partly drawn) [Compound 59, N^1-((4′-chloro-4-methyl-6-((4-(4-(((4-(((R)-4-morpholino-1-(phenylthio)butan-2-yl)amino)-3-((trifluoromethyl)sulfonyl)phenyl)sulfonyl)carbamoyl)phenyl)piperazin-1-yl)methyl)-2,3,4,5-tetrahydro-[1,1′-biphenyl]-4-yl)methyl)-N^14—((S)-1-((2S,4R)-4-hydroxy-2-(((S)-1-(4-(4-methylthiazol-5-yl)phenyl)ethyl)carbamoyl)pyrrolidin-1-yl)-3,3-dimethyl-1-oxobutan-2-yl)-3,6,9,12-tetraoxatetradecanediamide], the IC50 in assay [1] came out at 973 nM; in assay [2] it was 404 nM.
